The source of these data is US20220143006A1, “METHODS OF TREATING CANCER WITH FARNESYLTRANSFERASE INHIBITORS” (Kura Oncology, Inc., priority 2019, published 2022).

The subject of one series is tumors in nude mice. As to conditions: cited from earlier work.
Series [1] has as its system Ras-dependent and -independent malignant tumors. As to conditions: cited from earlier work.
The test system of series [2] is angioimmunoblastic T-cell lymphoma (AITL). Put plainly: Phase 2 clinical study of tipifarnib in PTCL: objective response by KIR mutation status, AITL patients. It is filed as in vivo, human. On the procedure: (§1) This example describes an ongoing Phase 2 clinical study of tipifarnib with the primary objective being to assess the antitumor activity in terms of Overall Response Rate (ORR) of tipifarnib in approximately 18-30 eligible subjects eligible subjects with Peripheral T-Cell Lymphoma (PTCL) (ClinicalTRials.gov identifier: NCT02464228).
(§2) Subjects receive tipifarnib administered at a starting dose of 300 mg, orally with food, twice a day (bid) on Days 1-21 in 28 day cycles (i.e. 3 weeks on/1 week off). Stepwise 100 mg dose reductions to control treatment-related, treatment-emergent toxicities were also allowed. Subjects who received tipifarnib bid on days 1-7 and days 15-21 in 28 day cycles during the conduct of earlier versions of this protocol were permitted to remain on that dose regimen at the discretion of the investigator. Alternatively, the subject was permitted to transition to receive a dose of 300 mg, orally with food, bid on days 1-21 of 28 day treatment cycles beginning on Day 1 of their next cycle. In the absence of unmanageable toxicities, subjects may continue to receive tipifarnib treatment for up to 12 months in the absence of disease progression and unmanageable toxicity. Treatment was permitted to continue beyond 12 months upon agreement of the Investigator and Sponsor.
(§3) Tumor assessments are performed at screening, at the Day 22 visit (±5 days) performed during Cycles 2, 4, 6 and once every approximately 12 weeks (cycles 9, 12, 15, etc.) thereafter, until disease progression.
(§4) Determination of objective tumor response is performed based on the Lugano Classification (Cheson 2014, Appendix II: The Lugano Classification) and/or measurable cutaneous disease according to the modified Severity Weighted Assessment Tool (mSWAT, Olsen 2011, Appendix III: Modified Severity Weighted Assessment Tool).
(§5) Primary outcome measures: objective response rate (ORR) following treatment with tipfarnib. [Time Frame: 2 years]. Response assessments according to IWC and/or mSWAT.
(§6) This Phase II study investigates the antitumor activity in terms of ORR of tipifarnib in approximately 18-30 eligible subjects with relapsed or refractory PTCL. The first 18 subjects were permitted to have the following PTCL sub-types: PTCL, not otherwise specified (PTCL-NOS), angioimmunoblastic T-cell lymphoma (AITL), ALK-positive and -negative anaplastic large cell lymphoma (ALCL), hepatosplenic T-cell lymphoma, enteropathy-associate T-cell lymphoma (EATL), extranodal natural killer (NK) T-cell lymphoma, nasal type and subcutaneous panniculitis-like T-cell lymphoma. The AITL expansion cohort (N=12) enrolls only subjects with AITL. Only consented subjects who meet all eligibility criteria were enrolled in the study. Eligible subjects received tipifarnib administered at a starting dose of 300 mg, orally with food, twice a day (bid) on Days 1-21 in 28 day cycles (i.e. 3 weeks on/1 week off). Stepwise 100 mg dose reductions to control treatment-related, treatment-emergent toxicities were also allowed. Subjects who received tipifarnib bid on days 1-7 and days 15-21 in 28 day cycles during the conduct of earlier versions of this protocol were permitted to remain on that dose regimen at the discretion of the investigator. Alternatively, the subject was permitted to transition to receive a dose of 300 mg, orally with food, bid on days 1-21 of 28 day treatment cycles beginning on Day 1 of their next cycle. In the absence of unmanageable toxicities, subjects may continue to receive tipifarnib treatment for up to 12 months in the absence of disease progression and unmanageable toxicity. Treatment was permitted to continue beyond 12 months upon agreement of the Investigator and Sponsor.
(§7) A two-stage study design was used for the first 18 subjects in order to minimize the number of study subjects treated if tipifarnib were considered not sufficiently efficacious to grant further development in this subject population. […]

For series [3], the system named is PTCL, not otherwise specified (PTCL-NOS). Put plainly: Phase 2 clinical study of tipifarnib in PTCL: objective response by KIR mutation status, PTCL-NOS patients. In kind it is in vivo, human. As to conditions: FIG. 6, PTCL-NOS patients (N=9) with Q386E mutant of KIR3DL2. On the procedure:
as §1, §2, §3, §4
Primary outcome measures: objective response rate (ORR) following treatment with tipfarnib. [Time Frame: 2 years]. Response assessments according to IWC and/or mSWAT. […]

In series [4] the test system is relapsed or refractory Peripheral T-Cell Lymphoma (PTCL). Put plainly: Phase 2 clinical study of tipifarnib in PTCL (NCT02464228): objective response by KIR mutation status, PTCL-NOS and AITL patients together. In kind it is in vivo, human. On the procedure: as §1, §2, §3, §4, §5, §6, §7
Series [5] relates to unselected tumor populations (AML, MDS/CMML, urothelial cancer, breast cancer, PTCL/CTCL). As to conditions: single agent therapy, in man; cited from earlier work.
Setting [6] is: AITL, KIR3DL2 C336R/Q386E mutant, N=8.
[7] abbreviates: FIG. 1, 9 AITL patients, carriers of D184N mutant of KIR2DL1.
The mark [8] stands for this setting: FIG. 2, 9 AITL patients, carriers of E295D mutant of KIR2DL3.
Setting [9] is: FIG. 2, 9 AITL patients, carriers of R162T mutant of KIR2DL3.
Where [10] appears, read: FIG. 3, 9 AITL patients, carriers of Q149K, Q149R, and I154M mutants of KIR2DL4.
[11] abbreviates: FIG. 5, 9 AITL patients, carriers of C336R and Q386E mutants of KIR3DL2.
[12] abbreviates: FIG. 6, AITL patients (N=5) with Q386E mutant of KIR3DL2.
Where [13] appears, read: FIG. 7, subset of 10 AITL patients, carriers of C336R and Q386E mutants of KIR3DL2.
Setting [14] is: FIG. 6, 14 patients with Q386E mutant of KIR3DL2 (PTCL-NOS N=9, AITL N=5).
Where [15] appears, read: FIG. 6, patients (N=13) with wild type (wt) KIR3DL2 at position 386.

“Also recorded” adds a separate entry of the source.

Consider `CC[C@H](C)[C@@H](CO[C@@H](Cc1ccccc1)C(=O)N[C@@H](CCS(C)(=O)=O)C(=O)O)NC[C@@H](N)CS` [L-739749, 2(S)-[2(S)-[2(R)-amino-3-mercapto]propylamino-3(S)-methyl]-pentyloxy-3-phenylpropionyl-methionine sulfone], for which the system toxicity entry with tumors in nude mice (mouse, in vivo) is reported as “without system toxicity”. Also, the antitumor activity result with tumors in nude mice (nude mice) is listed as “potent antitumor activity”.
As to `NC(=O)N1CCC(CC(=O)N2CCC([C@H]3c4ncc(Br)cc4CCc4cc(Cl)cc(Br)c43)CC2)CC1` [lonafarnib, (+)-(R)-4-[2-[4-(3,10-dibromo-8-chloro-5,6-dihydro-11H-benzo[5,6]cyclohepta[1,2-b]pyridin-11-yl)piperidin-1-yl]-2-oxoethyl]piperidine-1-carboxamide], in series [1], the “activity in malignant tumors” value is reported as “active”.
`Cn1cncc1[C@@](N)(c1ccc(Cl)cc1)c1ccc2c(c1)c(-c1cccc(Cl)c1)cc(=O)n2C` [tipifarnib, (B)-6-[amino(4-chlorophenyl)(1-methyl-1H-imidazol-5-yl)methyl]-4-(3-chlorophenyl)-1-methyl-2(1H)-quinolinone]: in series [2] (AITL, KIR3DL2 C336R/Q386E mutant), the “Clinical Benefit Rate (CR + PR + SD), patients/N” value is listed as 8/8. Besides, in series [2] (setting [6]), the “Clinical Benefit Rate (CR + PR + SD)” value is given as 100%; the “Overall Best Response: Complete Response (CR), number of patients” value is 4; the “Overall Best Response: Partial Response (PR), number of patients” value came to 2; the “Overall Best Response: Stable Disease (SD), number of patients” value was found to be 2. The “Overall Response Rate (CR + PR)” value in series [2] (setting [6]) is listed as 75%. Moreover, in series [2] (AITL, KIR3DL2 wild type), the “Clinical Benefit Rate (CR + PR + SD), patients/N” value is recorded as 2/7. In series [2] (AITL, KIR3DL2 wild type, N=7), the “Clinical Benefit Rate (CR + PR + SD)” value worked out at 29%; the “Overall Best Response: Partial Response (PR), number of patients” value came out at 2; the “Overall Best Response: Progressive Disease (PD), number of patients” value was found to be 5; the “Overall Response Rate (CR + PR)” value was 29%. In series [2] (setting [7]), the “objective responses: number of complete responses (CR)” value (“objective responses: number … (CR)” for short) was found to be 2 and the “objective responses: number of partial responses (PR)” value (“objective responses: number … (PR)” below) is 1. The “objective responses: number … (CR)” value in series [2] (FIG. 1, 9 AITL patients, carriers of F202L mutant of KIR2DL1) came out at 2. Moreover, the “objective responses: number … (CR)” value in series [2] (FIG. 1, 9 AITL patients, carriers of G179R mutant of KIR2DL1) was 1. In addition, the “objective responses: number … (PR)” value in series [2] (FIG. 1, 9 AITL patients, carriers of N178D mutant of KIR2DL1) is reported as 1. Further, the “objective responses: number … (CR)” value in series [2] (FIG. 1, 9 AITL patients, carriers of R197T mutant of KIR2DL1) came to 2. In addition, in series [2] (setting [8]), the “objective responses: number … (CR)” value is 1 and the “objective responses: number … (PR)” value is listed as 1. In addition, in series [2] (setting [9]), the “objective responses: number … (CR)” value was 2 and the “objective responses: number … (PR)” value is 1. In addition, in series [2] (setting [10]), the “objective responses: number … (CR)” value was 2 and the “objective responses: number … (PR)” value was 2. Besides, in series [2] (setting [11]), the “objective responses: number … (CR)” value amounted to 2 and the “objective responses: number … (PR)” value came out at 2. In series [2] (setting [12]), the ORR turned out to be 80%, the “objective responses: number … (CR)” value amounted to 2 and the “objective responses: number … (PR)” value was found to be 2. Besides, in series [2] (setting [13]), the “objective responses: number … (CR)” value is listed as 4 and the “objective responses: number … (PR)” value worked out at 2. In addition, in series [3], the ORR is on record as 11%, the “objective responses: number of CR” value came to 1 and the “objective responses: number of progressive disease (PD)” value was 8. Moreover, in series [4] (setting [14]), the ORR is 36%, the “objective responses: number of CRs” value stood at 3, the “objective responses: number of PDs” value amounted to 8 and the “objective responses: number of PRs” value was found to be 2. Also, in series [4] (setting [14]), the “objective responses: number of SD” value was 1. Further, in series [4] (setting [15]), the ORR came to 8%, the “objective responses: number of PD” value is given as 9, the “objective responses: number of PR” value is recorded as 1 and the “objective responses: number of SD” value was 3. In series [5], the safety and tolerability entry is reported as “manageable safety profile; also recorded: reasonably well tolerated in man”.
